Like-named read-outs stand apart in the source and are kept apart here.
Columns and labels:
L540cy HL tumors = experiment: Antitumor activity on subcutaneous L540cy HL tumors in SCID mice; format: in vivo; settings: for Median TGD (FIG. 6) (days to triple): Vinblastine q4dx3
Experimental: (§1) SCID mice were implanted with L540cy HL cells in the right flank.
as §1
(§2) SCID mice were implanted with L540cy HL cells in the right flank. Groups of mice (5-10/group) were untreated or received cAC10-vcMMAE (1 mg/kg, q4dx3, ip) alone, Gemcitabine (120 mg/kg, q4dx3, ip) alone, or combination treatment with cAC10-vcMMAE and Gemcitabine when tumor sizes averaged approximately 100 mm^3.
as §2, with “and Gemcitabine,” for “and Gemcitabine”, “approximately 300” for “approximately 100”
as §1, §1
(§3) SCID mice were implanted with L540cy HL cells in the right flank. Groups of mice (5-10/group) were untreated or received cAC10-vcMMAE (1 mg/kg, q4dx3, ip) alone, Vinorelbine alone (4 mg/kg q5dx3), or combination treatment cAC10-vcMMAE and vinorelbine when tumor sizes averaged approximately 100 mm^3.
as §3
as §3, with “Doxorubicin” for “Vinorelbine”, “(3” for “(4”, “q4dx3),” for “q5dx3),”, “treatment with” for “treatment”, “doxorubicin” for “vinorelbine”
as §3, with “Doxorubicin” for “Vinorelbine”, “(1.5” for “(4”, “q4dx3),” for “q5dx3),”, “treatment with” for “treatment”, “doxorubicin” for “vinorelbine”
SCID mice were implanted with L540cy HL cells in the right flank. Groups of mice (7-10/group) were untreated or received cAC10-vcMMAE (1 mg/kg, q4dx3, ip) alone, Vinblastine alone ([…] q4dx3), or combination treatment with cAC10-vcMMAE and vinblastine when tumor sizes averaged approximately 300 mm^3.
as §2, with “(6-8/group)” for “(5-10/group)”
as §1

[1] = tested on: relapsed or refractory HL; settings: cited from earlier work
[2] = FIG. 5A, first experiment, ~100 mm^3, cAC10-vcMMAE 1 mg/kg q4dx3 ip, Doxorubicin 3 mg/kg q4dx3
[3] = FIG. 5B, second experiment, ~100 mm^3, cAC10-vcMMAE 1 mg/kg q4dx3 ip, Doxorubicin 1.5 mg/kg q4dx3
[4] = ~100 mm^3, cAC10-vcMMAE 1 mg/kg q4dx3 ip, Gemcitabine 120 mg/kg q4dx3 ip
[5] = ~300 mm^3, cAC10-vcMMAE 1 mg/kg q4dx3 ip, Gemcitabine 120 mg/kg q4dx3 ip
[6] = FIG. 7, second study, ~100 mm^3, cAC10-vcMMAE 1 mg/kg q4dx3 ip, Gemcitabine 120 mg/kg q4dx3 ip
[7] = FIG. 4A, first experiment, ~100 mm^3, cAC10-vcMMAE 1 mg/kg q4dx3 ip, Vinorelbine 4 mg/kg q5dx3
[8] = FIG. 4B, second experiment, ~100 mm^3, cAC10-vcMMAE 1 mg/kg q4dx3 ip, Vinorelbine 4 mg/kg q5dx3
[9] = FIG. 6, ~300 mm^3, cAC10-vcMMAE 1 mg/kg q4dx3 ip, Vinblastine 0/1 mg/kg q4dx3
[10] = FIG. 6, ~300 mm^3, cAC10-vcMMAE 1 mg/kg q4dx3 ip

| Compound | Median TGD (FIG. 5A) (days to quadruple) (L540cy HL tumors; [2]) [days] | durable responses, animals/group (L540cy HL tumors; [2]) | Median TGD (FIG. 5B) (days to quadruple) (L540cy HL tumors; [3]) [days] | durable responses, animals/group (L540cy HL tumors; [3]) | Median TGD (FIG. 2A) (days to quadruple) (L540cy HL tumors; [4]) [days] | Median TGD (FIG. 2B) (days to triplicate) (L540cy HL tumors; [5]) [days] | Median TGD (FIG. 7) (days to quadruple) (L540cy HL tumors; [6]) [days] | durable responses, animals/group (L540cy HL tumors; [6]) | Median TGD (FIG. 4A) (days to quadruple) (L540cy HL tumors; [7]) [days] | durable responses, animals/group (L540cy HL tumors; [7]) | Median TGD (FIG. 4B) (days to quadruple) (L540cy HL tumors; [8]) [days] | durable responses, animals/group (L540cy HL tumors; [8]) | durable responses, animals/group (L540cy HL tumors; [9]) | Median TGD (FIG. 6) (days to triple) (L540cy HL tumors; [10]) [days] | further results |
| --- | --- | --- | --- | --- | --- | --- | --- | --- | --- | --- | --- | --- | --- | --- | --- |
| COc1cccc2c1C(=O)c1c(O)c3c(c(O)c1C2=O)C[C@@](O)(C(=O)CO)C[C@@H]3O[C@H]1C[C@H](N)[C@H](O)[C@H](C)O1 [Doxorubicin, reference compound] | 32 | 0/3 | 27.2 | 0/9 |  |  |  |  |  |  |  |  |  |  |  |
| Nc1ccn([C@@H]2O[C@H](CO)[C@@H](O)C2(F)F)c(=O)n1 [Gemcitabine, 4-amino-1-[(2R,4R,5R)-3,3-difluoro-4-hydroxy-5-(hydroxymethyl)oxolan-2-yl]pyrimidin-2-one, reference compound] |  |  |  |  | 5 | 15.5 | 42 | 1/6 |  |  |  |  |  |  | durable responses, animals/group (L540cy HL tumors; FIG. 8, at day 51, experiment not yet complete, ~100 mm^3, cAC10-mcMMAF 1 mg/kg q4dx3 ip, Gemcitabine 120 mg/kg q4dx3 ip): 0/10; response rates ([1]; relapsed/refractory setting, majority of patients with prior autologous or allogeneic transplant, Venkatesh et al. 2004): 22%; response rates ([1]; transplant naive setting, relapsed or refractory HL patients, Santoro et al. 2000): 39% |
| CCC1=C[C@@H]2CN(C1)Cc1c([nH]c3ccccc13)[C@@](C(=O)OC)(c1cc3c(cc1OC)N(C)[C@H]1[C@@](O)(C(=O)OC)[C@H](OC(C)=O)[C@]4(CC)C=CCN5CC[C@]31[C@@H]54)C2 [Vinorelbine, reference compound] |  |  |  |  |  |  |  |  | 28 | 0/6 | 34.4 | 0/9 |  |  |  |
| CC[C@]1(O)C[C@@H]2CN(CCc3c([nH]c4ccccc34)[C@@](C(=O)OC)(c3cc4c(cc3OC)N(C)[C@H]3[C@@](O)(C(=O)OC)[C@H](OC(C)=O)[C@]5(CC)C=CCN6CC[C@]43[C@@H]65)C2)C1 [Vinblastine, reference compound] |  |  |  |  |  |  |  |  |  |  |  |  | 0/10 | 30.93 |  |
| cAC10-vcMMAE: antibody-drug conjugate: chimeric AC10 anti-CD30 antibody linked via MC-val-cit-PAB to monomethyl auristatin E | 64 | 1/6 | 78.8 | 4/10 | 34 | 39.5 | 78.01 | 1/7 | 64 | 1/6 | 78.8 | 4/10 | 1/8 | 45.9 | effect on tumors compared to control treatment (L540cy HL tumors; FIG. 1A, monotherapy, tumors eventually progressed): induced tumor regressions and significant tumor growth delays; Median TGD (FIG. 1A) (days to quadruple) (L540cy HL tumors; FIG. 1A, treatment started at tumor size ~100 mm^3, cAC10-vcMMAE 1 mg/kg q4dx3 ip, ABVD: Adriamycin 1 mg/kg q4dx3 iv, Bleomycin 7.5 u/kg q4dx3 ip, Vinblastine 0.015 mg/kg q4dx3 ip, Dacarbazine 20 mg/kg q3dx4 ip): 63 days; durable responses (durable tumor regressions; absence of palpable tumor), animals/group (L540cy HL tumors; FIG. 1A, ~100 mm^3, cAC10-vcMMAE 1 mg/kg q4dx3 ip, ABVD full dose): 4/9; Median TGD (FIG. 1B) (days to triple) (L540cy HL tumors; FIG. 1B, treatment started at ~300 mm^3, cAC10-vcMMAE 1 mg/kg q4dx3 ip, ABVD: Adriamycin 0.75 mg/kg q4dx3 iv, Bleomycin 6 u/kg q4dx3 ip, Vinblastine 0.01 mg/kg q4dx3 ip, Dacarbazine 15 mg/kg q3dx4 ip): 41 days; durable responses, animals/group (L540cy HL tumors; FIG. 1B, ~300 mm^3, cAC10-vcMMAE 1 mg/kg q4dx3 ip, ABVD dosages reduced by 25%): 2/10; durable responses, animals/group (L540cy HL tumors; FIG. 3A, first experiment, ~100 mm^3, cAC10-vcMMAE 1 mg/kg q4dx3 ip, GVD): 4/9; Median TGD (FIG. 3A) (days to quadruple) (L540cy HL tumors; FIG. 3A, first experiment, ~100 mm^3, cAC10-vcMMAE 1 mg/kg q4dx3 ip, GVD: gemcitabine 60 mg/kg q4dx3 ip, vinorelbine 2 mg/kg q5dx3 ip, doxorubicin 1.5 mg/kg q4dx3 iv): 84.6 days; durable responses, animals/group (L540cy HL tumors; FIG. 3B, second experiment, ~100 mm^3, cAC10-vcMMAE 1 mg/kg q4dx3 ip, GVD): 0/7; Median TGD (FIG. 3B) (days to quadruple) (L540cy HL tumors; FIG. 3B, second experiment, ~100 mm^3, cAC10-vcMMAE 1 mg/kg q4dx3 ip, GVD: gemcitabine 60 mg/kg q4dx3 ip, vinorelbine 2 mg/kg q5dx3 ip, doxorubicin 1.5 mg/kg q4dx3 iv): 54.7 days |

— patent US8263083B2, “Combination therapy with antibody-drug conjugates” (priority 2007, dated 2012)
